# Results as given in US20230295103A1 (priority 2020, published 2023).
# Legend:
# [1] = test system: human cells A498, BEAS-2B, Caco-2, HaCaT, HepG2, HUVEC, IMR90, N87
# B. pseudomallei = assay: microbe, parasite or virus in culture; type: cell-based; conditions: Burkholderia pseudomallei, read-out: Minimal Inhibitory Concentration (MIC)
# [2] = test system: E. coli (ATCC 8739), B. subtilis (ATCC 6633), P. aeruginosa (ATCC 9027), S. aureus (ATCC 6538P), H. pylori (ATCC43504), C. albicans (ATCC 200498); type: cell-based
# B. cepacia = assay: microbe, parasite or virus in culture; type: cell-based; conditions: Burkholderia cepacia, read-out: Minimal Inhibitory Concentration (MIC)
# [3] = test system: Streptomyces roietensis (DSM 101729); assay: microbe, parasite or virus in culture; type: cell-based; conditions: DSM101729, read-out: Minimal Inhibitory Concentration (MIC)
# [4] = test system: large panel of bacteria including Gram+ and Gram- bacteria and Mycobacterium as well as fungi associated to plant infection; type: cell-based
# [5] = test system: Pseudomonas syringae (DSM 10604); assay: microbe, parasite or virus in culture; type: cell-based; conditions: DSM10604, read-out: Minimal Inhibitory Concentration (MIC)
# B. mallei = assay: microbe, parasite or virus in culture; type: cell-based; conditions: Burkholderia mallei, read-out: Minimal Inhibitory Concentration (MIC)
# [6] = test system: human liver cell line HepG2 (ATCC HB-8065); assay: cells; conditions: HepG2, 48 h, read-out: IC50 on the viability of HepG2 cells
# [7] = test system: human liver cell line HepG2 (ATCC HB-8065)
# [8] = test system: P. aeruginosa (ATCC 9027); type: cell-based, Pseudomonas aeruginosa
# Erwina cacticida = conditions: cited from earlier work
# Phoma medicaginis = conditions: cited from earlier work
Compound,MIC (B. pseudomallei),MIC (B. cepacia),MIC [3],MIC [5],MIC (B. mallei),further results
CC(=O)Nc1ccc2c(c1)C(=O)/C(=C/c1ccccc1)O2,,,,,,melting point: 241 °C
"CC(=O)Nc1ccc2c(c1)C(=O)/C(=C/c1cccc(OCc3ccccc3)c1)O2 [A7, (Z)-N-(2-(3-(benzyloxy)benzylidene)-3-oxo-2,3-dihydrobenzofuran-5-yl)acetamide]",1.5 to 12.5 µM,3.12 to 12.5 µM,6.25 to 12.5 µM,1.5 to 3.12 µM,1.5 to 12.5 µM,"Therapeutic index (TI) or safe factor (SF) [1]: 38-4017; mean of TI/SF [1]: 370; antimicrobial activity on tested strains (ranking) [2]: the more active; antimicrobial activity, spectrum [4]: confirmed the activity"
"CC(=O)Nc1ccc2c(c1)C(=O)/C(=C/c1ccc(OCc3ccccc3)c(OCc3ccccc3)c1)O2 [AD-1-49, (Z)-N-(2-(3,4-bis(benzyloxy)benzylidene)-3-oxo-2,3-dihydrobenzofuran-5-yl)acetamide]",,,,,,IC50 [6]: > 250 µM
"COc1cccc(/C=C2\Oc3ccc(C(=O)O)cc3C2=O)c1 [AD-1-61, (2Z)-2-(3-methoxybenzylidene)-3-oxo-2,3-dihydro-1-benzofuran-5-carboxylic acid]",,,,,,IC50 [6]: > 250 µM
"CN(C)c1ccc(/C=C2\Oc3ccc(C(=O)O)cc3C2=O)cc1 [AD-1-62, (2Z)-2-[4-(dimethylamino)benzylidene]-3-oxo-2,3-dihydro-1-benzofuran-5-carboxylic acid]",,,,,,IC50 [6]: > 250 µM
"Nc1ccc2c(c1)C(=O)/C(=C/c1cccc(Oc3ccccc3)c1)O2 [B1, (Z)-5-amino-2-(3-phenoxybenzylidene)benzofuran-3(2H)-one]",1.5 to 12.5 µM,3.12 to 12.5 µM,6.25 to 12.5 µM,1.5 to 3.12 µM,1.5 to 12.5 µM,
"CC(=O)Nc1ccc2c(c1)C(=O)/C(=C/c1ccc(OC(C)C)cc1)O2 [B5, (Z)-N-(2-(4-isopropoxybenzylidene)-3-oxo-2,3-dihydrobenzofuran-5-yl)acetamide]",1.5 to 12.5 µM,3.12 to 12.5 µM,6.25 to 12.5 µM,1.5 to 3.12 µM,1.5 to 12.5 µM,"Therapeutic index (TI) or safe factor (SF) [1]: 38-4017; mean of TI/SF [1]: 103; antimicrobial activity on tested strains (ranking) [2]: the more active; antimicrobial activity, spectrum [4]: confirmed the activity"
"CC(=O)Nc1ccc2c(c1)C(=O)/C(=C/c1ccc(C(=O)O)cc1)O2 [C4, (Z)-4-((5-acetamido-3-oxobenzofuran-2(3H)-ylidene)methyl)benzoic acid]",1.5 to 12.5 µM,,,,1.5 to 12.5 µM,
"COc1c(C)c(O)c(C)c2c1C(=O)/C(=C/c1ccccc1)O2 [C10, (Z)-2-benzylidene-6-hydroxy-4-methoxy-5,7-dimethylbenzofuran-3(2H)-one]",1.5 to 12.5 µM,,,,1.5 to 12.5 µM,
"COc1ccc(/C=C2\Oc3cc(N)ccc3C2=O)cc1 [C11, (Z)-6-amino-2-(4-methoxybenzylidene)benzofuran-3(2H)-one]",1.5 to 12.5 µM,3.12 to 12.5 µM,6.25 to 12.5 µM,1.5 to 3.12 µM,1.5 to 12.5 µM,"Therapeutic index (TI) or safe factor (SF) [1]: 38-4017; mean of TI/SF [1]: 355; antimicrobial activity on tested strains (ranking) [2]: the more active; antimicrobial activity, spectrum [4]: confirmed the activity"
"O=C1/C(=C/c2ccc(OCc3ccccc3)cc2OCc2ccccc2)Oc2ccccc21 [C12, (Z)-2-(2,4-bis(benzyloxy)benzylidene)benzofuran-3(2H)-one]",1.5 to 12.5 µM,3.12 to 12.5 µM,,,1.5 to 12.5 µM,"Therapeutic index (TI) or safe factor (SF) [1]: 38-4017; mean of TI/SF [1]: 1169; antimicrobial activity on tested strains (ranking) [2]: the more active; antimicrobial activity, spectrum [4]: confirmed the activity"
"COc1cc(/C=C2\Oc3ccc(NC(C)=O)cc3C2=O)cc(OC)c1OC [D1, (Z)-N-(3-oxo-2-(3,4,5-trimethoxybenzylidene)-2,3-dihydrobenzofuran-5-yl)acetamide]",1.5 to 12.5 µM,3.12 to 12.5 µM,,,1.5 to 12.5 µM,melting point: 254 °C
"COc1ccc(/C=C2\Oc3ccccc3C2=O)cc1 [D10, (Z)-2-(4-methoxybenzylidene)benzofuran-3(2H)-one]",1.5 to 12.5 µM,3.12 to 12.5 µM,6.25 to 12.5 µM,1.5 to 3.12 µM,1.5 to 12.5 µM,
"O=C1/C(=C/c2ccc(Oc3ccc4oc(-c5ccccc5)cc(=O)c4c3)cc2)Oc2ccccc21 [E5, (Z)-6-(4-((3-oxobenzofuran-2(3H)-ylidene)methyl)phenoxy)-2-phenyl-4H-chromen-4-one]",,,6.25 to 12.5 µM,1.5 to 3.12 µM,,"Therapeutic index (TI) or safe factor (SF) [1]: 38-4017; mean of TI/SF [1]: 852; antimicrobial activity on tested strains (ranking) [2]: the more active; antimicrobial activity, spectrum [4]: confirmed the activity"
"O=C(O)c1ccc2c(c1)C(=O)/C(=C/c1ccc(OCc3ccccc3)c(OCc3ccccc3)c1)O2 [MR1065, (Z)-2-(3,4-bis(benzyloxy)benzylidene)-3-oxo-2,3-dihydrobenzofuran-5-carboxylic acid]",,,,,,Therapeutic index (TI) or safe factor (SF) [7]: 712.82
"O=C(O)CCCCCOc1ccc(/C=C2\Oc3ccccc3C2=O)cc1 [MR1076, (Z)-6-(4-((3-oxobenzofuran-2(3H)-ylidene)methyl)phenoxy)hexanoic acid]",,,,,,antimicrobial activity [8]: active; IC50 [6]: > 250 µM
cephalocerone,,,,,,growth inhibition (Erwina cacticida): inhibit the growth
hispidol,,,,,,inhibition of fungal pathogen (Phoma medicaginis): inhibit
hispidol-4′-O-β-D-glucoside,,,,,,inhibition of fungal pathogen (Phoma medicaginis): inhibit
